These results are taken from patent US20240383932A1, “Phenol Prodrugs” (Lilac Therapeutics, Inc., priority 2023, published 2024).

One may read the AUC(0-t) as exposure summed from dosing to a finite time, without extrapolation to infinity. Lower therefore signals less exposure. What is called Cmax is the maximum level reached in the sampled fluid or tissue. In general, half-life refers to how long it takes for the measured level to halve. Higher therefore signals slow decline. For orientation: solubility means the dissolved amount per volume that the medium holds.

≈ marks a conversion by molar mass, not a printed value. Where two headings read alike, the source gives them in different places.

The nature of data set [1]: Pharmacokinetics after single dose oral administration in rats. As to conditions: rat; for half-life: po, 50 mg/kg. Format: in vivo, male Sprague Dawley rats. The protocol:
The pharmacokinetics of ivacaftor (50 mg/kg in organic and 0.25% Methyl Cellulose in water suspension) in male Sprague Dawley rats after single dose oral administration and compound 15 in 0.25% Methyl Cellulose in water suspension at 108 mg-eq/kg (50 mg/kg equivalent to free base) 324 mg-eq/kg (150 mg/kg equivalent to free base) 540 mg-eq/kg (250 mg/kg equivalent to free base) and 756 mg-eq/kg (350 mg/kg equivalent to free base) were investigated. […] The plasma concentration vs. time profile for these experiments are show in FIG. 3.

A short description of data set [2]: Solubility in various buffers. The settings on record: for pH: pH of solubility sample. Format: physicochemical. The protocol: The solubility of crystalline compound 15 was measured in the various buffers.
The mark [3] stands for this setting: male, Sprague Dawley, plasma, ivacaftor 50 mg/kg, Crystalline Suspension (0.25% Methyl Cellulose in water).

Regarding `CC(C)(C)c1cc(C(C)(C)C)c(NC(=O)c2c[nH]c3ccccc3c2=O)cc1O` [ivacaftor, N-(2,4-di-tert-butyl-5-hydroxyphenyl)-4-oxo-1,4-dihydroquinoline-3-carboxamide, reference compound], the AUC(0-t) in data set [1] (setting [3]) was determined as 14600 ng·h/mL. In data set [1] (setting [3]), this molecule gave a Cmax of 586 ng/mL. Also, the half-life in data set [1] (male, Sprague Dawley, plasma, Organic Solution) was 10 h; in data set [1] (setting [3]) it was 20 h. For the same molecule, the “reduction in AUC, crystalline suspension vs organic solution formulation” value in data set [1] (ivacaftor 50 mg/kg) is recorded as 92%. Further, the solubility in data set [2] (FaSSIF.V2, fassif, thermodynamic from solid, read-out: Solubility) is 15 µg/mL (≈ 38.2 µM); in data set [2] (FeSSIF.V2, fessif, thermodynamic from solid, read-out: Solubility) it was 152 µg/mL (≈ 387 µM); in data set [2] (FeSSIF.V2, ivacaftor as SDD, read-out: Solubility) it was 600 µg/mL (≈ 1530 µM); in data set [2] (SGF, simulated gastric fluid, thermodynamic from solid, read-out: Solubility), 21 µg/mL (≈ 53.5 µM); in data set [2] (Water), 7 µg/mL (≈ 17.8 µM); in data set [2] (phosphate buffer, aqueous buffer, thermodynamic from solid, pH 6.8 PO4^3− buffer, read-out: Solubility) it was 8 µg/mL (≈ 20.4 µM). The pH in data set [2] (FaSSIF.V2) came out at 6.35; in data set [2] (FeSSIF.V2) it was 5.91; in data set [2] (SGF), 2.20; in data set [2] (Water), 7.35; in data set [2] (pH 6.8 PO4^3− buffer), 6.71.

Turning to `CC(C)OC(=O)[C@H](C)N[P@@](=O)(OCCN1CCOCC1)Oc1cc(NC(=O)c2c[nH]c3ccccc3c2=O)c(C(C)(C)C)cc1C(C)(C)C.O=C(O)CCC(=O)O` [Compound 15], in data set [1] (crystalline aqueous suspension, dosed up to 350 mg/kg), the “dose dependence of exposure of ivacaftor, in words” value is on record as “dose proportional increase in the exposure of ivacaftor”. Also, the “reduction in AUC with crystalline aqueous suspension, in words” value in data set [1] (dosed up to 350 mg/kg) was “such reduction was not observed”. Further, the “Observation after 24 hrs” value in data set [2] (FaSSIF.V2) is “Suspension”; in data set [2] (FeSSIF.V2), “Clear”; in data set [2] (SGF), “Clear”; in data set [2] (Water), “Slightly Hazy”; in data set [2] (pH 6.8 PO4^3− buffer), “Suspension”. Further, the “solubility compared with ivacaftor, in words” value in data set [2] (FeSSIF and simulated gastric fluid) was “significant improvement in solubility”. Also, the solubility in data set [2] (aqueous buffer, thermodynamic from solid, pH 6.8 PO4^3− buffer, read-out: Solubility) is below 2 µg/mL; in data set [2] (simulated gastric fluid, thermodynamic from solid, SGF, read-out: Solubility), 1430 µg/mL; in data set [2] (thermodynamic from solid, FaSSIF.V2, read-out: Solubility), 86 µg/mL; in data set [2] (thermodynamic from solid, FeSSIF.V2, read-out: Solubility), 1810 µg/mL; in data set [2] (water, thermodynamic from solid, read-out: Solubility), 787 µg/mL. Also, the pH in data set [2] (FaSSIF.V2) is 6.09; in data set [2] (FeSSIF.V2), 5.83; in data set [2] (SGF), 1.96; in data set [2] (Water), 3.57; in data set [2] (pH 6.8 PO4^3− buffer), 6.71.
